target: Cyclin-dependent kinase 4 (Homo sapiens) (UniProt P11802); assay: Inhibition of Cyclin-dependent kinase 4 (CDK4) at ug/mL; details: concentration not given here
Sequence (P11802 whole entry): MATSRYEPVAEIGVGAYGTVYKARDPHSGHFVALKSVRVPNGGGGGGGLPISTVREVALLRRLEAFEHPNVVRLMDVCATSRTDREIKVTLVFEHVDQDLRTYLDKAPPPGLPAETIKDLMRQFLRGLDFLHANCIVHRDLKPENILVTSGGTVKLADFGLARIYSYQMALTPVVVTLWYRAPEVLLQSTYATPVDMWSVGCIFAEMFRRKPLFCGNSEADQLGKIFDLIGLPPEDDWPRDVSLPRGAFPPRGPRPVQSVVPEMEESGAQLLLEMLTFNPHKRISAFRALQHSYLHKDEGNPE

| Compound | inhibition |
| --- | --- |
| COc1cc(Nc2c(C#N)cnc3cc(-c4ccc(CN5CCOCC5)cc4)ccc23)c(Cl)cc1Cl | 10% |

target: Epidermal growth factor receptor (Homo sapiens, UniProt P00533); assay: Inhibition of Epidermal growth factor receptor; details: not given
Sequence (P00533 whole entry): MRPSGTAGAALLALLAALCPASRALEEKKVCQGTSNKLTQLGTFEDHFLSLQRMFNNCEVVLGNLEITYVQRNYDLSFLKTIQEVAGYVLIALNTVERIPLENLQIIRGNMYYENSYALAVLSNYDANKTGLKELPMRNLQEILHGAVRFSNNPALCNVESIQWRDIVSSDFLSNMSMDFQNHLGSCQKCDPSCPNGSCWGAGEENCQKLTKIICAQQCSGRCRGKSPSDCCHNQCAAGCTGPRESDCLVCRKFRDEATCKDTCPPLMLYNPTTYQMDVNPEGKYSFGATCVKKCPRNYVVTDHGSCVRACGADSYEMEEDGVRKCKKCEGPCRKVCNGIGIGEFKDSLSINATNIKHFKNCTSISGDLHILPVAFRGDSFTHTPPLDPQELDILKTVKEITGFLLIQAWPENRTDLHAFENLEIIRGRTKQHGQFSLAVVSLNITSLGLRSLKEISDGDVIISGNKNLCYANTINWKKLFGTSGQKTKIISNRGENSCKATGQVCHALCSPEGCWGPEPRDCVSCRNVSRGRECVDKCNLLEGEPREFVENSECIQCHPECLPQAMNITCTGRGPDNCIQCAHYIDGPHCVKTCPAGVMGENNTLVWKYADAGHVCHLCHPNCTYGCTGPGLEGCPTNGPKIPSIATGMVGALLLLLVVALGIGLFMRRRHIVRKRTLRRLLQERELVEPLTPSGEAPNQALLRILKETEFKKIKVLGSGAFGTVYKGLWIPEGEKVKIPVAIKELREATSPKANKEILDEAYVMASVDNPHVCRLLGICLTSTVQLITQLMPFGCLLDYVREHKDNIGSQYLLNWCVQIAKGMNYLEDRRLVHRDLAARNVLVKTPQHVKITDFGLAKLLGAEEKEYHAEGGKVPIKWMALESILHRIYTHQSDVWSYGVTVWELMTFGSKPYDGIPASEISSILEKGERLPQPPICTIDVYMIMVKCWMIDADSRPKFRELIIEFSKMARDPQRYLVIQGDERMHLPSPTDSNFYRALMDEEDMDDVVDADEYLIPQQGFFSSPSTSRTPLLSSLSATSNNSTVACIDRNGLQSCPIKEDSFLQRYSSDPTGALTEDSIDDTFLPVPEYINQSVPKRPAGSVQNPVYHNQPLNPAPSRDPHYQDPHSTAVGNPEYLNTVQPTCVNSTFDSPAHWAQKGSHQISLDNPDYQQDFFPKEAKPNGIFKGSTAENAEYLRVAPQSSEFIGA

| Compound | IC50 |
| --- | --- |
| COc1cc(Nc2c(C#N)cnc3cc(-c4ccc(CN5CCOCC5)cc4)ccc23)c(Cl)cc1Cl | 3000 nM |

target: Dual specificity mitogen-activated protein kinase kinase 1 (Homo sapiens, UniProt Q02750); assay: Inhibition of Dual specificity mitogen-activated protein kinase kinase, MEK; details: not given
Sequence (Q02750 whole entry): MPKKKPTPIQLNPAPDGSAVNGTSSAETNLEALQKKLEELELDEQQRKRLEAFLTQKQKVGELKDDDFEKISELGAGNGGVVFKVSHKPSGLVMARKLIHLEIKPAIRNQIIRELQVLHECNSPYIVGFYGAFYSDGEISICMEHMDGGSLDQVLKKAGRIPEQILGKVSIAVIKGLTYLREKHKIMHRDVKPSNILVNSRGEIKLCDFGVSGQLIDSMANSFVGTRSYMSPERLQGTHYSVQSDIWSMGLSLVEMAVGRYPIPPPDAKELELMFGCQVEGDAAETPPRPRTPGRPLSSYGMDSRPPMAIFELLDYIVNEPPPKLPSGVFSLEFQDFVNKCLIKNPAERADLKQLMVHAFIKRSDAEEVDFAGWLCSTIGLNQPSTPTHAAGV

| Compound | IC50 |
| --- | --- |
| COc1cc(Nc2c(C#N)cnc3cc(-c4ccc(CN5CCOCC5)cc4)ccc23)c(Cl)cc1Cl | 280 nM |

test system: not listed separately; assay: Inhibitory concentration required for the Src dependent cell proliferation using Src-transformed fibroblasts; details: not given

| Compound | IC50 |
| --- | --- |
| CCN1CCN(CCc2ccc(-c3ccc4c(Nc5cc(OC)c(Cl)cc5Cl)c(C#N)cnc4c3)cc2)CC1 | 1900 nM |
| COc1cc(Nc2c(C#N)cnc3cc(-c4cccc(CN5CCOCC5)c4)ccc23)c(Cl)cc1Cl | 3900 nM |
| COc1cc(Nc2c(C#N)cnc3cc(-c4ccc(CN5CCOCC5)cc4)ccc23)c(Cl)cc1Cl | 520 nM |
| COc1cc(Nc2c(C#N)cnc3cc(OCCCN4CCN(C)CC4)c(OC)cc23)c(Cl)cc1Cl [BOSUTINIB] | 100 nM |
| COc1cc(Nc2c(C#N)cnc3cc(-c4cccc(CCN5CCOCC5)c4)ccc23)c(Cl)cc1Cl | 3200 nM |
| COc1cc(Nc2c(C#N)cnc3cc(-c4cccc(CN5CCOCC5)c4)c(OC)cc23)c(Cl)cc1Cl | 8100 nM |
| CCN1CCN(Cc2ccc(-c3ccc4c(Nc5cc(OC)c(Cl)cc5Cl)c(C#N)cnc4c3)cc2)CC1 | 960 nM |
| COc1cc(Nc2c(C#N)cnc3cc(-c4ccc(CCN5CCOCC5)cc4)ccc23)c(Cl)cc1Cl | 1000 nM |
| COc1cc(Nc2c(C#N)cnc3cc(-c4ccc(CN5CCN(CCO)CC5)cc4)ccc23)c(Cl)cc1Cl | 71 nM |
| COc1cc(Nc2c(C#N)cnc3cc(-c4ccccc4CN4CCOCC4)ccc23)c(Cl)cc1Cl | > 10000 nM |
| COc1cc(Nc2c(C#N)cnc3cc(-c4cccc(CN5CCN(C)CC5)c4)ccc23)c(Cl)cc1Cl | 2800 nM |
| COc1cc(Nc2c(C#N)cnc3cc(-c4cccc(CCN5CCOCC5)c4)c(OC)cc23)c(Cl)cc1Cl | 12000 nM |
| COc1cc(Nc2c(C#N)cnc3cc(-c4ccc(CN5CCOCC5)cc4)c(OC)cc23)c(Cl)cc1Cl | 1500 nM |
| COc1cc(Nc2c(C#N)cnc3cc(-c4ccc(CCN5CCOCC5)cc4)c(OC)cc23)c(Cl)cc1Cl | 1300 nM |
| CCN1CCN(Cc2ccc(-c3cc4ncc(C#N)c(Nc5cc(OC)c(Cl)cc5Cl)c4cc3OC)cc2)CC1 | 2000 nM |

target: Proto-oncogene tyrosine-protein kinase Src (Homo sapiens, UniProt P12931); assay: Inhibitory concentration against Src protein tyrosine kinase; details: not given
Sequence (P12931 2-536 limits assumed): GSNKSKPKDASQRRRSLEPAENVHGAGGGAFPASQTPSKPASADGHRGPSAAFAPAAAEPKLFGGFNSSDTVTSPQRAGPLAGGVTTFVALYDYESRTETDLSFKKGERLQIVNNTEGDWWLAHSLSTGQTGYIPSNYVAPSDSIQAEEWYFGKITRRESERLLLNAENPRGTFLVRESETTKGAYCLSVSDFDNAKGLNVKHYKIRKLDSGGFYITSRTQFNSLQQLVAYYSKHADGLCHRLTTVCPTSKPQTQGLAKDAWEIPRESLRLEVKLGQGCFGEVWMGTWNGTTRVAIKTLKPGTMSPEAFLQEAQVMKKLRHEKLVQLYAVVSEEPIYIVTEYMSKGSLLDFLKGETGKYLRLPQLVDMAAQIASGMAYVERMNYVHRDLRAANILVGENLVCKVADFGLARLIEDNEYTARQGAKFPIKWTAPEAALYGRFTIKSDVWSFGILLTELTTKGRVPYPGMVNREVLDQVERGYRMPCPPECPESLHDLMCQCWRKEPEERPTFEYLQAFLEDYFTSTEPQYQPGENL

| Compound | IC50 |
| --- | --- |
| CCN1CCN(CCc2ccc(-c3ccc4c(Nc5cc(OC)c(Cl)cc5Cl)c(C#N)cnc4c3)cc2)CC1 | 3.7 nM |
| COc1cc(Nc2c(C#N)cnc3cc(-c4cccc(CN5CCOCC5)c4)ccc23)c(Cl)cc1Cl | 28 nM |
| COc1cc(Nc2c(C#N)cnc3cc(-c4ccc(CN5CCOCC5)cc4)ccc23)c(Cl)cc1Cl | 3.3 nM |
| COc1cc(Nc2c(C#N)cnc3cc(-c4cccc(CCN5CCOCC5)c4)ccc23)c(Cl)cc1Cl | 29 nM |
| COc1cc(Nc2c(C#N)cnc3cc(-c4cccc(CN5CCOCC5)c4)c(OC)cc23)c(Cl)cc1Cl | 150 nM |
| CCN1CCN(Cc2ccc(-c3ccc4c(Nc5cc(OC)c(Cl)cc5Cl)c(C#N)cnc4c3)cc2)CC1 | 3 nM |
| COc1cc(Nc2c(C#N)cnc3cc(-c4ccc(CCN5CCOCC5)cc4)ccc23)c(Cl)cc1Cl | 14 nM |
| COc1cc(Nc2c(C#N)cnc3cc(-c4ccc(CN5CCN(CCO)CC5)cc4)ccc23)c(Cl)cc1Cl | 4.7 nM |
| COc1cc(Nc2c(C#N)cnc3cc(-c4ccccc4CN4CCOCC4)ccc23)c(Cl)cc1Cl | 4000 nM |
| COc1cc(Nc2c(C#N)cnc3cc(-c4cccc(CN5CCN(C)CC5)c4)ccc23)c(Cl)cc1Cl | 14 nM |
| COc1cc(Nc2c(C#N)cnc3cc(-c4cccc(CCN5CCOCC5)c4)c(OC)cc23)c(Cl)cc1Cl | 74 nM |
| COc1cc(Nc2c(C#N)cnc3cc(-c4ccc(CN5CCOCC5)cc4)c(OC)cc23)c(Cl)cc1Cl | 15 nM |
| COc1cc(Nc2c(C#N)cnc3cc(-c4ccc(CCN5CCOCC5)cc4)c(OC)cc23)c(Cl)cc1Cl | 11 nM |
| CCN1CCN(Cc2ccc(-c3cc4ncc(C#N)c(Nc5cc(OC)c(Cl)cc5Cl)c4cc3OC)cc2)CC1 | 7 nM |

Reference: ChEMBL document CHEMBL1134917, “Substituted 4-anilino-7-phenyl-3-quinolinecarbonitriles as Src kinase inhibitors” (Bioorg Med Chem Lett, 2002)
